Measurements reported in US11840686B2, “Modulation of prekallikrein (PKK) expression” (Ionis Pharmaceuticals, Inc., priority 2013, dated 2023).
Strand notation (5' to 3'): a small letter for the sugar, then the base; units joined by * are phosphorothioate-linked, units joined directly phosphodiester-linked; [ ] holds rarer units or linkages, { } end groups; capitals alone tell only the bases. e = 2'-O-(2-methoxyethyl) (MOE); [5mC] = 5-methylcytosine; d = 2'-deoxy (DNA)

Legend:
[1] = test system: human PKK mRNA; assay: Dose-dependent antisense inhibition of human PKK in HepaRG cells, 0.19-5.00 uM (Example 5); format: cell-based; details: for percent inhibition of PKK mRNA, 0.19 μM: 0.19 μM antisense oligonucleotide; for percent inhibition of PKK mRNA, 0.56 μM: 0.56 μM antisense oligonucleotide; for percent inhibition of PKK mRNA, 1.67 μM: 1.67 μM antisense oligonucleotide; for percent inhibition of PKK mRNA, 5.00 μM: 5.00 μM antisense oligonucleotide
Experimental: Cells were plated at a density of 20,000 cells per well and transfected using electroporation with 0.19 μM, 0.56 μM, 1.67 μM, and 5.00 μM concentrations of antisense oligonucleotide. After a treatment period of approximately 16 hours, RNA was isolated from the cells and PKK mRNA levels were measured by quantitative real-time PCR. Human PKK primer probe set RTS3454 was used to measure mRNA levels. PKK mRNA levels were adjusted according to total RNA content, as measured by RIBOGREEN®. The antisense oligonucleotides were tested in a series of experiments that had similar culture conditions.
The half maximal inhibitory concentration (IC50) of each oligonucleotide is also presented.

[2] = test system: human PKK mRNA; assay: Antisense inhibition of human PKK mRNA in HepaRG cells, 5,000 nM (Example 2); format: cell-based; details: Table 13; human PKK mRNA in HepaRG cells; 5-10-5 gapmers
Outline: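 Percent inhibition of PKK mRNA is relative to untreated control, with qRT-PCR (probe set RTS3454) values adjusted to total RNA by RIBOGREEN. Oligonucleotides, fully phosphorothioate 2′-MOE gapmers, were delivered at 5,000 nM by electroporation into 20,000 HepaRG cells/well for about 24 h.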

[3] = HepaRG cells, electroporation, approximately 16 hours, Table 41
[4] = 4 point dose response, HepaRG cells, Table 41
[5] = Table 34, HepaRG, electroporation, ~16 h
[6] = Table 34, PKK mRNA, HepaRG, electroporation, ~16 h
[7] = HepaRG cells, electroporation, approximately 16 hours, Table 37
[8] = 4 point dose response, HepaRG cells, Table 37
[9] = HepaRG cells, electroporation, approximately 16 hours, Table 36
[10] = HepaRG cells, electroporation, approximately 16 hours, Table 38
[11] = HepaRG cells, electroporation, approximately 16 hours, Table 39

546827 (e[5mC]*eA*eG*eT*eA*dT*d[5mC]*dA*d[5mC]*dT*dG*dT*dA*d[5mC]*dT*eA*eG*eT*eT*eT; antisense) [compound 546827]
percent inhibition of PKK at 5.00 μM [1, 3]: 96% | percent inhibition of PKK at 0.19 0μM [1, 3]: 23% | percent inhibition of PKK at 0.56 0μM [1, 3]: 74% | percent inhibition of PKK at 1.67 1μM [1, 3]: 98% | IC50 [1, 4]: 0.4 µM | percent inhibition of PKK at 0.19 μM [1, 5]: 32% | percent inhibition of PKK at 0.56 μM [1, 5]: 70% | percent inhibition of PKK at 1.67 μM [1, 5]: 84% | percent inhibition of PKK at 5.00 μM [1, 5]: 90% | IC50 [1, 6]: 0.3 µM | % inhibition [2]: 98%

546829 (eA*eA*e[5mC]*eA*eG*dT*dA*dT*d[5mC]*dA*d[5mC]*dT*dG*dT*dA*e[5mC]*eT*eA*eG*eT; antisense) [compound 546829]
percent inhibition of PKK at 0.19 μM [1, 5]: 3% | percent inhibition of PKK at 0.56 μM [1, 5]: 30% | percent inhibition of PKK at 1.67 μM [1, 5]: 73% | percent inhibition of PKK at 5.00 μM [1, 5]: 88% | IC50 [1, 6]: 1 µM | % inhibition [2]: 94%

546832 (e[5mC]*eT*e[5mC]*eT*eA*dA*d[5mC]*dA*dG*dT*dA*dT*d[5mC]*dA*d[5mC]*eT*eG*eT*eA*e[5mC]; antisense) [compound 546832]
percent inhibition of PKK at 0.19 μM [1, 7]: 19% | percent inhibition of PKK at 0.56 μM [1, 7]: 38% | percent inhibition of PKK at 1.67 μM [1, 7]: 70% | percent inhibition of PKK at 5.00 μM [1, 7]: 95% | IC50 [1, 8]: 0.8 µM | percent inhibition of PKK mRNA, 0.19 μM ([1]; HepaRG cells): 36% | percent inhibition of PKK mRNA, 0.56 μM ([1]; HepaRG cells): 49% | percent inhibition of PKK mRNA, 1.67 μM ([1]; HepaRG cells): 85% | percent inhibition of PKK mRNA, 5.00 μM ([1]; HepaRG cells): 97% | IC50 ([1]; HepaRG cells, 0.19-5.00 μM): 0.4 µM | % inhibition [2]: 88%

546833 (eA*e[5mC]*eT*e[5mC]*eT*dA*dA*d[5mC]*dA*dG*dT*dA*dT*d[5mC]*dA*e[5mC]*eT*eG*eT*eA; antisense) [compound 546833]
percent inhibition of PKK at 0.19 μM [1, 9]: 8% | percent inhibition of PKK at 0.56 μM [1, 9]: 33% | percent inhibition of PKK at 1.67 μM [1, 9]: 74% | percent inhibition of PKK at 5.00 μM [1, 9]: 94% | IC50 ([1]; 4 point dose response, HepaRG cells, Table 36): 0.9 µM | % inhibition [2]: 90%

546834 (eA*eA*e[5mC]*eT*e[5mC]*dT*dA*dA*d[5mC]*dA*dG*dT*dA*dT*d[5mC]*eA*e[5mC]*eT*eG*eT; antisense) [compound 546834]
percent inhibition of PKK at 0.19 μM [1, 10]: 1% | percent inhibition of PKK at 0.56 μM [1, 10]: 0% | percent inhibition of PKK at 1.67 μM [1, 10]: 30% | percent inhibition of PKK at 5.00 μM [1, 10]: 83% | IC50 ([1]; 4 point dose response, HepaRG cells, Table 38): 2.3 µM | % inhibition [2]: 86%

546835 (eT*eA*eA*e[5mC]*eT*d[5mC]*dT*dA*dA*d[5mC]*dA*dG*dT*dA*dT*e[5mC]*eA*e[5mC]*eT*eG; antisense) [compound 546835]
percent inhibition of PKK at 0.19 μM [1, 11]: 9% | percent inhibition of PKK at 0.56 μM [1, 11]: 35% | percent inhibition of PKK at 1.67 μM [1, 11]: 68% | percent inhibition of PKK at 5.00 μM [1, 11]: 93% | IC50 ([1]; 4 point dose response, HepaRG cells, Table 39): 0.9 µM | % inhibition [2]: 86%

546846 (e[5mC]*eT*eG*eT*e[5mC]*d[5mC]*dT*dA*dT*dA*dT*d[5mC]*dA*d[5mC]*dT*eG*eT*e[5mC]*e[5mC]*eT; antisense) [compound 546846]
percent inhibition of PKK at 0.19 0μM [1, 3]: 26% | percent inhibition of PKK at 0.56 0μM [1, 3]: 49% | percent inhibition of PKK at 1.67 1μM [1, 3]: 85% | IC50 [1, 4]: 0.5 µM | percent inhibition of PKK at 0.19 μM [1, 5]: 36% | percent inhibition of PKK at 0.56 μM [1, 5]: 45% | percent inhibition of PKK at 1.67 μM [1, 5]: 71% | percent inhibition of PKK at 5.00 μM [1, 5]: 82% | IC50 [1, 6]: 0.5 µM | % inhibition [2]: 95%

546847 (eA*e[5mC]*eT*eG*eT*d[5mC]*d[5mC]*dT*dA*dT*dA*dT*d[5mC]*dA*d[5mC]*eT*eG*eT*e[5mC]*e[5mC]; antisense) [compound 546847]
percent inhibition of PKK at 0.19 μM [1, 7]: 39% | percent inhibition of PKK at 0.56 μM [1, 7]: 57% | percent inhibition of PKK at 1.67 μM [1, 7]: 75% | percent inhibition of PKK at 5.00 μM [1, 7]: 89% | IC50 [1, 8]: 0.4 µM | percent inhibition of PKK mRNA, 0.19 μM ([1]; HepaRG cells): 14% | percent inhibition of PKK mRNA, 0.56 μM ([1]; HepaRG cells): 44% | percent inhibition of PKK mRNA, 1.67 μM ([1]; HepaRG cells): 83% | percent inhibition of PKK mRNA, 5.00 μM ([1]; HepaRG cells): 95% | IC50 ([1]; HepaRG cells, 0.19-5.00 μM): 0.7 µM | % inhibition [2]: 88%
